The results in this text go back to patent publication US10870630B2, “Substituted bicyclic heteroaryl allosteric modulators of nicotinic acetylcholine receptors” (Merck Sharp & Dohme Corp., priority 2016, dated 2020).

The assay has as its target human α7 nicotinic acetylcholine receptor (α7 nAChR) (Homo sapiens, UniProt P36544). Briefly: Automated patch-clamp electrophysiology functional assay (Assay A). The class given is cell-based. The following applies: HEK cell line stably expressing human RIC-3 and human α7, IonFlux HT whole-cell population patch, 40 μM acetylcholine. As for the experimental part:
The α7 nAChR positive allosteric modulator (PAM) activity of the present compounds may be tested using assays known in the art. The α7 nAChR PAMs described herein have activities in an automated patch-clamp electrophysiology functional assay as described in the examples. The assay was performed using the IonFlux HT in a whole-cell, population patch configuration. See Golden et al. Assay Drug Dev. Technol. (2011) 9:608-619. The compounds were assessed for their ability to modulate the function of the human […] nAChR stably expressed in a HEK cell line both in the presence, and in the absence of the natural 07 agonist acetylcholine. By performing a series of such measurements at different concentrations, the effective concentration of the α7 nAChR PAMs (EC50) was determined. See Spencer et al. Assay Drug Dev. Technol. (2012) 10:313-324.
Automated patch-clamp electrophysiology was performed using the IonFlux HT (Fluxion Biosciences Inc., San Francisco, Calif.) in the whole-cell, population patch configuration. Test compounds were assessed for their ability to modulate the function of the α7 nicotinic acetylcholine receptor both in the presence, and in the absence of the natural α7 agonist acetylcholine. A HEK cell line stably expressing both human RIC-3 and human α7 (PrecisION hnAChR α7/RIC-3, Eurofins Pharma, St. Charles, Mo.) was cultured in 175 cm^2 triple-layer tissue culture flasks to no more than 90% confluency in DMEM/F-12 growth media supplemented with 10% heat-inactivated fetal bovine serum, 1% non-essential amino acids, 0.625 μg/mL Puromycin, and 400 μg/mL Geneticin. Immediately prior to assay, cells were detached by first aspirating growth media, rinsing with Dulbecco's phosphate buffered saline, and then adding 10 mL of Accutase (Innovative Cell Technologies, San Diego, Calif.) to the flask and then incubating at 37° C. for 5 minutes. Detached cells were then recovered by the addition of 40 mL of CHO-serum-free media supplemented with 25 mM HEPES, and rocked gently in a 50 mL conical tube for 20 minutes prior to patch-clamp assay. After recovery, cells were pelleted by centrifugation at 1,000 RPM for 1 minute in a compact bench top centrifuge; recovery media was aspirated and cells were resuspended in external recording solution (150 mM NaCl, 5 mM KCl, 2 mM CaCl2, 1 mM MgCl2, 10 mM HEPES, 12 mM dextrose) to a density of 5.0×10^6 cells/mL. The cell suspension was added to the cell inlet wells on an IonFlux HT population patch plate which had previously been rinsed and primed with deionized H2O. Test compounds were serially diluted in DMSO and then resuspended to the final test concentration in external recording solution, with, or without 40 μM acetylcholine added to the external recording solution; test compounds were then transferred to the IonFlux HT population patch plate. Internal recording solution (110 mM TrisPO4, 28 mM TrisBase, 0.1 mM CaCl2, 2 mM MgCl2, 11 mM EGTA, 4 mM MgATP) was added to the internal recording solution inlet wells on the IonFlux HT patch plate previously loaded with cells and test compounds, and the plate loaded into the IonFlux HT instrument. A protocol was executed on the IonFlux HT to trap the cells, break into the cells, and establish the whole-cell recording configuration; cells were voltage-clamped at a holding potential of −60 mV for the duration of the experiment, all experiments were conducted at room temperature, and the IonFlux HT injection pressure was 8 psi for solution applications. Upon establishing the whole-cell configuration, external recording solution was perfused into the recording chambers for 120 seconds and then 40 μM acetylcholine was applied for 1 second and immediately washed off with external recording solution for 60 seconds. The 40 μM acetylcholine-evoked α7 current served as the current response to which subsequent test compound effects, in the presence, or in the absence of 40 μM acetylcholine would be quantified relative to. […]
(In general: Patch clamp records ionic current or voltage across a cell membrane.)

Structures are written as SMILES. Like-named read-outs stand apart in the source and are kept apart here.

Sequence of human α7 nicotinic acetylcholine receptor (α7 nAChR) (P36544 23-502): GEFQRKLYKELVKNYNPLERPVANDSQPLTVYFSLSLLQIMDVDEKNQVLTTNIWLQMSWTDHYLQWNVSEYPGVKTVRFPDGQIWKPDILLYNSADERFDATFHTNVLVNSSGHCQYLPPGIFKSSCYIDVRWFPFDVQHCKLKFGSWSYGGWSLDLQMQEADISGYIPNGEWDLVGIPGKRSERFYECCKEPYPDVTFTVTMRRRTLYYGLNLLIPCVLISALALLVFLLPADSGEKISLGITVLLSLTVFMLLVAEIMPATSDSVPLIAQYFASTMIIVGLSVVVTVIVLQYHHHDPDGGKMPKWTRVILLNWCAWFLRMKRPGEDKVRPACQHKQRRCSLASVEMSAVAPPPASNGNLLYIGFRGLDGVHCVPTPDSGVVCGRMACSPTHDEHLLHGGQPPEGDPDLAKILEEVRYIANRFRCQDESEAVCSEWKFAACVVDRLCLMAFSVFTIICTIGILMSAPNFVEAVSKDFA

For `CC1(C)[C@H](c2ccc(S(N)(=O)=O)cc2)[C@H]1c1nc2c(o1)CCC2` [Example 11, 4-[(1R,3R)-3-(5,6-Dihydro-4H-cyclopenta[d][1,3]oxazol-2-yl)-2,2-dimethylcyclopropyl]benzenesulfonamide], the EC50 (read-out: α7 nAChR EC50) was determined as 2000 nM and the EC50 (read-out: α7 nAChR Potency) was in the range of 500 to 5000 nM.
For `CN1CCOc2cc(C3CC3c3ccc(S(N)(=O)=O)cc3)cnc21` (racemic) [Example E13, 4-[2-(4-Methyl-2,3-dihydropyrido[3,2-b][1,4]oxazin-7-yl)cyclopropyl]benzenesulfonamide], in that order: 880 nM and 500 to 5000 nM.
On to `Cn1ncc2cc(C3CC3c3ccc(S(N)(=O)=O)cc3)ccc21` (racemic) [Example E9, 4-[2-(1-Methylindazol-5-yl)cyclopropyl]benzenesulfonamide], for which the EC50 is, setting by setting: (read-out: α7 nAChR EC50) 2800 nM; (read-out: α7 nAChR Potency) 500 to 5000 nM.
As to `NS(=O)(=O)c1ccc(C2CC2c2ccc3cc(C(F)(F)F)nnc3c2)cc1` (racemic) [Example E5, 4-[2-[3-(Trifluoromethyl)cinnolin-7-yl]cyclopropyl]benzenesulfonamide], the EC50 (read-out: α7 nAChR Potency) lay within 500 to 5000 nM.
As to `CC1(C)OC([C@H]2[C@H](c3ccc(S(N)(=O)=O)cc3)C2(F)F)=Nc2ccccc21` [Example 13, 4-[(1R,3R)-3-(4,4-Dimethyl-4H-3,1-benzoxazin-2-yl)-2,2-difluorocyclopropyl]benzenesulfonamide], the EC50 is 1800 nM (read-out: α7 nAChR EC50) and 500 to 5000 nM (read-out: α7 nAChR Potency).
Turning to `CC1(C)[C@H](c2ccc(S(N)(=O)=O)cc2)[C@H]1c1cn2ncccc2n1` [Example 8, 4-((1R,3R)-3-(Imidazo[1,2-b]pyridazin-2-yl)-2,2-dimethylcyclopropyl)benzenesulfonamide], the EC50 is 3800 nM (read-out: α7 nAChR EC50) and 500 to 5000 nM (read-out: α7 nAChR Potency).
For `CC1(C)[C@H](c2ccc(S(N)(=O)=O)cc2)[C@H]1c1nc2ccccc2o1` [Example 1, 4-[(1R,3R)-3-(1,3-Benzoxazol-2-yl)-2,2-dimethylcyclopropyl]benzenesulfonamide] the same measures were 620 nM and 500 to 5000 nM.
For `CC1(C)[C@H](c2ccc(S(N)(=O)=O)cc2)[C@H]1c1ncc2c(n1)CCCC2` [Example 12, 4-[(R,3R)-2,2-Dimethyl-3-(5,6,7,8-tetrahydroquinazolin-2-yl)cyclopropyl]benzenesulfonamide] the same measures were 2500 nM and 500 to 5000 nM.
On to `NS(=O)(=O)c1ccc([C@H]2[C@H](c3nc4ccccc4[nH]3)C2(F)F)cc1` [Example A9, 4-[(1R,3R)-3-(1H-Benzimidazol-2-yl)-2,2-difluorocyclopropyl]benzenesulfonamide], for which, under “read-out: α7 nAChR Potency”, the EC50 is 500 to 5000 nM.
`CC1(C)[C@@H](c2ccc(S(N)(=O)=O)cc2)[C@@H]1c1nc2cc(Cl)ccc2o1` [Example A6, 4-[(1S,3S)-3-(5-Chloro-1,3-benzoxazol-2-yl)-2,2-dimethyl-cyclopropyl]benzenesulfonamide]: the EC50 was 430 nM (read-out: α7 nAChR EC50) and 100 to 500 nM (read-out: α7 nAChR Potency).
Consider `COc1cccc2oc([C@H]3[C@H](c4ccc(S(N)(=O)=O)cc4)C3(C)C)nc12` [Example A1, 4-[(1S,3S)-3-(4-Methoxy-1,3-benzoxazol-2-yl)-2,2-dimethyl-cyclopropyl]benzenesulfonamide], for which the EC50 (read-out: α7 nAChR EC50) is 830 nM and the EC50 (read-out: α7 nAChR Potency) is 500 to 5000 nM.
For `NS(=O)(=O)c1ccc([C@H]2C[C@@H]2c2nc3ccc(F)cc3o2)cc1` [Example B7, 4-[(1 S,2S)-2-(6-Fluoro-1,3-benzoxazol-2-yl)cyclopropyl]benzenesulfonamide], in that order: 4200 nM and 500 to 5000 nM.
For `CC1(C)[C@@H](c2ccc(S(N)(=O)=O)cc2)[C@@H]1c1nc2ccc(Cl)cc2o1` [Example A5, 4-[(1S,3S)-3-(6-Chloro-1,3-benzoxazol-2-yl)-2,2-dimethyl-cyclopropyl]benzenesulfonamide] the same measures were 1200 nM and 500 to 5000 nM.
